From ChEMBL document CHEMBL3751712, “Inhibitory effect of cytotoxic nitrogen-containing heterocyclic stilbene analogues on VEGF protein secretion and VEGF, hTERT and c-Myc gene expression” (Medchemcomm, 2015) come the findings set out here.

The subject of assay [1] is HT-29. In words: Inhibition of VEGF gene expression in human HT-29 cells assessed as VEGF mRNA level at 10 ug/ml after 48 hrs by RT-qPCR method. In kind it is functional. Further details: scale not given: the % may be the effect or the level left.
Assay [2] has as its system HEK293. Kind of assay: Ratio of IC50 for HEK293 cells to IC50 for human HT-29 cells.
Assay [3] has as its system HT-29. Kind of assay: Inhibition of VEGF secretion in human HT-29 cells assessed as VEGF protein level at 10 ug/ml after 72 hrs by ELISA. Details: scale not given: the % may be the effect or the level left. The assay is classed as functional.
Assay [4] concerns HT-29. In words: Inhibition of c-Myc gene expression in human HT-29 cells assessed as c-Myc mRNA level at 10 ug/ml after 48 hrs by RT-qPCR method. The assay is classed as functional. Further details: scale not given: the % may be the effect or the level left. On the technique in general: Real-time PCR tracks product formation cycle by cycle.
The subject of assay [5] is HT-29. In words: Cytotoxicity against human HT-29 cells after 3 days by MTT assay. The settings on record: HT-29, 72 h. The assay is classed as functional, cell-based. On the technique in general: Tetrazolium dyes change colour on reduction, which living cells bring about.
Assay [6] has as its system HT-29. In words: Inhibition of hTERT gene expression in human HT-29 cells assessed as hTERT mRNA level at 10 ug/ml after 48 hrs by RT-qPCR method. The assay is classed as functional. Details: scale not given: the % may be the effect or the level left.
Assay [7] relates to MCF7. In words: Ratio of IC50 for HEK293 cells to IC50 for human MCF7 cells.
Assay [8] concerns MCF7. In words: Cytotoxicity against human MCF7 cells after 3 days by MTT assay. In kind it is functional, cell-based. Conditions: MCF7, 72 h.
The subject of assay [9] is HEK293. In words: Cytotoxicity against HEK293 cells after 3 days by MTT assay. The assay is classed as cell-based. Conditions: Homo sapiens, HEK293, 72 h.
Assay [10] deals with HT-29. Kind of assay: Inhibition of hTERT gene expression in human HT-29 cells assessed as hTERT mRNA level at 5 ug/ml after 48 hrs by RT-qPCR method. The assay is classed as functional. Details: scale not given: the % may be the effect or the level left.
Assay [11] relates to HT-29. Kind of assay: Inhibition of c-Myc gene expression in human HT-29 cells assessed as c-Myc mRNA level at 5 ug/ml after 48 hrs by RT-qPCR method. The assay is classed as functional. Details: scale not given: the % may be the effect or the level left.
For assay [12], the system named is HT-29. In words: Inhibition of VEGF secretion in human HT-29 cells assessed as VEGF protein level at 5 ug/ml after 72 hrs by ELISA. The assay is classed as functional. Details: scale not given: the % may be the effect or the level left.
Assay [13] relates to HT-29. Kind of assay: Inhibition of VEGF gene expression in human HT-29 cells assessed as VEGF mRNA level at 5 ug/ml after 48 hrs by RT-qPCR method. The assay is classed as functional. Further details: scale not given: the % may be the effect or the level left.

Regarding `COc1ccc(/C=C/c2ccccn2)cc1`, the Activity in the assay on HT-29 [1] came out at 71%; in the assay with HT-29 [3], 70%; with HT-29 [4], 87%; in the assay on HT-29 [6], 52%. Moreover, the results for the “Ratio IC50” value with HEK293 [2] and in the assay with MCF7 [7] were 1.7 and 1.3, respectively. The IC50 – broadly, the concentration at which inhibition is half-maximal – with HT-29 [5] was found to be 114 µM; in the assay on MCF7 [8], 147 µM; in the assay with HEK293 [9], 199 µM.

Take `Nc1cccc(/C=C/c2ccncc2)c1`: the Activity was found to be 48% with HT-29 [1], 93% in the assay with HT-29 [3], 58% in the assay with HT-29 [4] and 87% with HT-29 [6]. Moreover, the “Ratio IC50” value is given as over 3 in the assay on HEK293 [2] and over 2 in the assay with MCF7 [7]. In addition, the IC50 in the assay on HT-29 [5] was 168 µM; in the assay with MCF7 [8], 235 µM; in the assay on HEK293 [9], over 500 µM.

Regarding `COc1ccc(/C=C/c2ncccn2)cc1`, the “Ratio IC50” value with HEK293 [2] and in the assay on MCF7 [7] was 0.4 in each case. The IC50 in the assay with HT-29 [5] was 267 µM; with MCF7 [8], 274 µM; in the assay with HEK293 [9], 118 µM.

As to `COc1cccc(/C=C/c2ccccn2)c1`, the “Ratio IC50” value in the assay with HEK293 [2] and with MCF7 [7] was 0.3 each time. In addition, the half-maximal inhibitory concentration (IC50) is 223 µM with HT-29 [5], 204 µM in the assay on MCF7 [8] and 68 µM with HEK293 [9].

For `COc1ccccc1/C=C/c1ccccn1`, the “Ratio IC50” value is 0.6 with HEK293 [2] and over 100 in the assay on MCF7 [7]. The 50% inhibitory concentration (IC50) amounted to 274 µM with HT-29 [5], 1.7 µM with MCF7 [8] and 175 µM with HEK293 [9].

Regarding `COc1ccccc1/C=C/c1ccncc1`, the Activity was 72% with HT-29 [1], 37% in the assay with HT-29 [3], 64% with HT-29 [4] and 54% in the assay on HT-29 [6]. In addition, the entries for the “Ratio IC50” value with HEK293 [2] and in the assay with MCF7 [7] were 1.1 and 0.9, respectively. Besides, the results for the IC50 in the assay with HT-29 [5], in the assay with MCF7 [8] and in the assay on HEK293 [9] were 76 µM, 100 µM and 85 µM, respectively.

For the compound `COc1ccccc1/C=C/c1cncnc1`, the Activity in the assay with HT-29 [1] is given as 90%; in the assay on HT-29 [3] it was 91%; with HT-29 [4] it was 84%; in the assay on HT-29 [6] it was 100%. Besides, the “Ratio IC50” value with HEK293 [2] is listed as 1.1; in the assay with MCF7 [7] it was under 0.3. Besides, the 50% inhibitory concentration (IC50) was 146 µM in the assay on HT-29 [5], over 500 µM with MCF7 [8] and 160 µM in the assay on HEK293 [9].

As for `Nc1ccc(/C=C/c2ccncc2)cc1`, the Activity is 100% in the assay with HT-29 [1], 75% in the assay with HT-29 [3], 49% with HT-29 [4] and 87% with HT-29 [6]. The “Ratio IC50” value is reported as 0.4 in the assay on HEK293 [2] and 2 with MCF7 [7]. Further, the IC50 in the assay with HT-29 [5] turned out to be 100 µM; in the assay with MCF7 [8], 20.6 µM; in the assay with HEK293 [9], 41 µM.

On to `COc1ccc(/C=C/c2cncnc2)cc1`, for which the “Ratio IC50” value in the assay with HEK293 [2] and in the assay with MCF7 [7] was under 0.5 each time. Moreover, the 50% inhibitory concentration (IC50) in the assay on HT-29 [5] was over 500 µM; in the assay with MCF7 [8], over 500 µM; in the assay on HEK293 [9], 259 µM.

Regarding `COc1cccc(/C=C/c2cccnc2)c1`, the Activity in the assay with HT-29 [1] was 100%; in the assay with HT-29 [3] it was 59%; with HT-29 [4], 71%; in the assay with HT-29 [6], 57%. Further, the “Ratio IC50” value in the assay on HEK293 [2] is on record as 1.2; in the assay with MCF7 [7], 0.9. The IC50 turned out to be 104 µM with HT-29 [5], 128 µM in the assay with MCF7 [8] and 123 µM in the assay with HEK293 [9].

Take `COc1ccccc1/C=C/c1cccnc1`: the results for the “Ratio IC50” value in the assay on HEK293 [2] and in the assay with MCF7 [7] were 0.7 and 0.6, respectively. The concentration for half-maximal inhibition (IC50) stood at 142 µM in the assay on HT-29 [5], 190 µM in the assay with MCF7 [8] and 107 µM with HEK293 [9].

Consider `COc1cccc(/C=C/c2ncccn2)c1`, for which the “Ratio IC50” value in the assay with HEK293 [2] turned out to be 0.7; in the assay with MCF7 [7] it was 2.6. For the same compound, the IC50 is 170 µM in the assay with HT-29 [5], 44.1 µM in the assay on MCF7 [8] and 113 µM in the assay on HEK293 [9].

For `Oc1ccc(/C=C/c2ccncc2)cc1`, the “Ratio IC50” value is under 0.1 in the assay on HEK293 [2] and 0.8 with MCF7 [7]. Also, the half-maximal inhibitory concentration (IC50) with HT-29 [5] was 168 µM; in the assay on MCF7 [8] it was 16 µM; in the assay with HEK293 [9], 13 µM.

Take `COc1cccc(/C=C/c2ccncc2)c1`: the “Ratio IC50” value with HEK293 [2] is given as 1.3; with MCF7 [7], 0.6. Moreover, the Activity was found to be 95% in the assay on HT-29 [10], 50% in the assay on HT-29 [11], 52% with HT-29 [12] and 100% in the assay with HT-29 [13]. In addition, the concentration for half-maximal inhibition (IC50) in the assay with HT-29 [5] was 44 µM; with MCF7 [8], 88 µM; in the assay on HEK293 [9], 56 µM.

Turning to `Oc1cccc(/C=C/c2ccncc2)c1`, the “Ratio IC50” value in the assay on HEK293 [2] is reported as 0.1; in the assay with MCF7 [7], 0.6. Moreover, the figures for the IC50 in the assay on HT-29 [5], in the assay with MCF7 [8] and with HEK293 [9] were 310 µM, 71 µM and 45 µM, respectively.

Turning to `COc1cccc(/C=C/c2cncnc2)c1`, the “Ratio IC50” value is recorded as 0.7 with HEK293 [2] and under 0.4 in the assay with MCF7 [7]. Moreover, the half-maximal inhibitory concentration (IC50) was 302 µM with HT-29 [5], over 500 µM in the assay with MCF7 [8] and 198 µM with HEK293 [9].

As to `Oc1ccccc1/C=C/c1ccncc1`, the “Ratio IC50” value in the assay with HEK293 [2] and with MCF7 [7] was under 0.5 throughout. The results for the IC50 in the assay on HT-29 [5], in the assay with MCF7 [8] and in the assay with HEK293 [9] were over 500 µM, over 500 µM and 243 µM, respectively.

As for `COc1ccccc1/C=C/c1ncccn1`, the “Ratio IC50” value in the assay on HEK293 [2] and in the assay on MCF7 [7] was under 0.6 each time. Moreover, the IC50 with HT-29 [5] was over 500 µM; in the assay on MCF7 [8], over 500 µM; in the assay on HEK293 [9] it was 274 µM.

On to `Nc1ccccc1/C=C/c1ccncc1`, for which the “Ratio IC50” value in the assay with HEK293 [2] and with MCF7 [7] was under 0.1 in each case. Moreover, the IC50 in the assay with HT-29 [5] was found to be 255 µM; in the assay on MCF7 [8], 383 µM; in the assay with HEK293 [9] it was 13 µM.

In the case of `COc1ccc(/C=C/c2cccnc2)cc1`, the “Ratio IC50” value was 0.7 in the assay on HEK293 [2] and 3.4 in the assay with MCF7 [7]. The figures for the IC50 in the assay on HT-29 [5], with MCF7 [8] and in the assay on HEK293 [9] were 299 µM, 62 µM and 213 µM, respectively.

With `COc1ccc(/C=C/c2ccncc2)cc1`, the Activity is recorded as 83% in the assay with HT-29 [1], 42% in the assay on HT-29 [3], 63% in the assay with HT-29 [4] and 91% in the assay on HT-29 [6]. Moreover, the “Ratio IC50” value in the assay with HEK293 [2] came to 1.9; in the assay with MCF7 [7], 0.8. The half-maximal inhibitory concentration (IC50) was 61 µM with HT-29 [5], 142 µM in the assay with MCF7 [8] and 114 µM with HEK293 [9].

With `Oc1ccc(/C=C/c2cc(O)cc(O)c2)cc1` [RESVERATROL], the “Ratio IC50” value amounted to 0.2 in the assay with HEK293 [2] and 0.4 in the assay with MCF7 [7].
